{"source": "EPA's ToxValDB 9.5 (doi:10.2903/j.efsa.2008.119r)", "key": {"Bibionidae": {"system": "Bibionidae", "settings": "chronic/long-term; duration: 28 days"}, "Coturnix japonica": {"system": "Coturnix japonica", "settings": "reproduction developmental"}, "Daphnia magna": {"system": "Daphnia magna", "settings": "chronic/long-term; duration: 21 days; reproduction"}, "Mus musculus": {"system": "Mus musculus", "settings": "chronic; duration: 2 years; hematological"}, "Oncorhynchus mykiss": {"system": "Oncorhynchus mykiss", "settings": "chronic/long-term; duration: 21 days; growth"}, "Oryctolagus sp.": {"system": "Oryctolagus sp.", "settings": "reproduction developmental; mortality"}, "Tagia sp.": {"system": "Tagia sp.", "settings": "chronic/long-term; duration: 56 days"}, "Typhlodromus pyri": {"system": "Typhlodromus pyri", "settings": "not reported; mortality"}}, "data": [{"smiles": "COC(=O)c1cc(Oc2ccc(Cl)cc2Cl)ccc1[N+](=O)[O-]", "note": "[Bifenox]", "values": [{"measurement": "NOEC", "setting": "Bibionidae", "result": 0.015, "unit": "mg/L"}, {"measurement": "NOEC", "setting": "Coturnix japonica", "result": 290, "unit": "mg/kg-day"}, {"measurement": "NOEC", "setting": "Daphnia magna", "result": 0.00015, "unit": "mg/L"}, {"measurement": "NOAEL", "setting": "Mus musculus", "result": 30, "unit": "mg/kg-day"}, {"measurement": "NOEC", "setting": "Oncorhynchus mykiss", "result": 0.0091, "unit": "mg/L"}, {"measurement": "NOAEL", "setting": "Oryctolagus sp.", "result": 50, "unit": "mg/kg-day"}, {"measurement": "NOAEL", "setting": "Rattus norvegicus; chronic", "result": 16, "unit": "mg/kg-day"}, {"measurement": "NOAEL", "setting": "Rattus norvegicus; reproduction developmental, reproduction", "result": 44.5, "unit": "mg/kg-day"}, {"measurement": "NOEC", "setting": "Tagia sp.", "result": 5.1, "unit": "mg/kg"}, {"measurement": "LEL", "setting": "Typhlodromus pyri", "result": 720, "unit": "g/ha"}]}]}
